{"source": "patent US20260199443A1", "about": "“HISTONE DEACYTLASE 6 MODULATION OF TITIN PROTEIN MEDIATED CARDIAC TISSUE STIFFNESS AND METHOD FOR SAME” (The Regents of the University of Colorado, a Body Corporate, priority 2019, published 2026)", "key": {"[1]": {"test_system": "adult rat ventricular myocytes (ARVMs)", "test": "Myofibril resting tension after 24 hour treatment of cultured ARVMs", "type": "cell-based", "conditions": "myofibrils isolated from ARVMs treated for 24 hours"}, "[2]": {"test_system": "diastolic dysfunction in murine models", "conditions": "murine models of hypertension and aging, reference (21); cited from earlier work"}, "HDAC6": {"biological_target": "T1, HDAC6 (Rattus norvegicus, UniProt A0A8I6GM68)", "T1 construct": "endogenous in cells; host or cells: adult rat ventricular myocytes (ARVMs) from Sprague Dawley rats", "T1 sequence (A0A8I6GM68 whole entry)": "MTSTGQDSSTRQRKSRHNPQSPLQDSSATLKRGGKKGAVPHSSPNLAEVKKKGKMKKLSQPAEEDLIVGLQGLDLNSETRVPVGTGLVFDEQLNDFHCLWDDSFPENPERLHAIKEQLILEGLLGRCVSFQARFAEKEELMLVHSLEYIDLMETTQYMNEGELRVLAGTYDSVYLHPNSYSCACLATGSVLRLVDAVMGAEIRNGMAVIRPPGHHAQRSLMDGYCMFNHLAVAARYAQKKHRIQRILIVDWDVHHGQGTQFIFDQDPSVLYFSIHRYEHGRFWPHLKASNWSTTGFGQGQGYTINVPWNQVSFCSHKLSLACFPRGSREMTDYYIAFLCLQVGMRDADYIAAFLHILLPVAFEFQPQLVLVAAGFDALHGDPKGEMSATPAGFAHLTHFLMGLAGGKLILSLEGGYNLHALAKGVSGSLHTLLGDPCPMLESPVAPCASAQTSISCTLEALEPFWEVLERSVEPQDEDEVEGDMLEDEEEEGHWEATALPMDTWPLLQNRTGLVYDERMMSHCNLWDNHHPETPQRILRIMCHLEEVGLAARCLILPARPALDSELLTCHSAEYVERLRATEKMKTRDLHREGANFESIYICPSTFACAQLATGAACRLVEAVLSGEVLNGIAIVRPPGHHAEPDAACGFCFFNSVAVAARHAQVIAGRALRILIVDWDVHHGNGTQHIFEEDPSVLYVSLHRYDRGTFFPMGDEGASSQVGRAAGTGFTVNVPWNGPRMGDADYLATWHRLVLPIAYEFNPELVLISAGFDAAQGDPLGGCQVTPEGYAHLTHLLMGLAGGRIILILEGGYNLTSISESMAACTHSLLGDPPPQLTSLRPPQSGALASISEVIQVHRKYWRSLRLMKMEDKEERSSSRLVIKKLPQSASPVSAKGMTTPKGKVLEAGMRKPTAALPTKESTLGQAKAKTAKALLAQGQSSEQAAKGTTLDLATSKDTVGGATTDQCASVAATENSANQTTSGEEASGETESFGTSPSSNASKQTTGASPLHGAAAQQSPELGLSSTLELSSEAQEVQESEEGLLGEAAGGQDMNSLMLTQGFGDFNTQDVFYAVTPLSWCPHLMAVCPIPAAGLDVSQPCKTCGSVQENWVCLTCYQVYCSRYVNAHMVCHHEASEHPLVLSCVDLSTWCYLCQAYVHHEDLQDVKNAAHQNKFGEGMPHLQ", "test": "Tubulin acetylation in treated ARVMs as a marker of HDAC6 inhibition (immunofluorescence, immunoblot)", "type": "cell-based", "conditions": "ARVMs treated for 24 hours", "from_the_text": "FIG. 1K are images of immunoblot analysis of acetyl-tubulin and total tubulin in whole-cell homogenates from treated ARVMs."}, "rat myofibrils (titin)": {"test_system": "rat myofibrils (titin)", "test": "Ex vivo incubation of purified rat myofibrils with recombinant enzyme, then myofibril mechanics", "conditions": "30 minutes", "description": "(§1) Myofibril mechanics were quantified using the fast solution switching technique (47). Frozen LV sections were skinned in 0.5% Triton-X in rigor solution (132 mM NaCl, 5 mM KCl, 1 mM MgCl2, 10 mM Tris, 5 mM EGTA, pH 7.1) containing protease inhibitors (10 μm leupeptin, 5 μm pepstatin, 200 μm PMSF and 10 μm E64), as well as 500 μm NaN3 and 500 μm DTT at 4° C. overnight. Skinned LVs were washed in fresh rigor solution and homogenized (Tissue-Tearor, Thomas Scientific) in relaxing solution (pCa 9.0) containing protease inhibitors. […] Average sarcomere lengths and myofibril diameters were measured using ImageJ software. […] Data were collected and analyzed using customized Lab View software. Measured mechanical and kinetic parameters were defined as follows: resting tension (mN/mm^2)=myofibril basal tension in fully relaxing condition; maximal tension (mN/mm^2)=maximal tension generated at full calcium activation (pCa 4.5); the rate constant of tension development following maximal calcium activation=kACT; and relaxation parameters were defined as: duration of the linear relaxation=linear duration, and the rate constant of exponential relaxation=fast kREL. For, myofibril resting tension-to-sarcomere length curves, each myofibril was stretched incrementally to determine the resting tension at different sarcomere lengths, and a resting tension-sarcomere length relationship was measured. […]"}, "[3]": {"test_system": "myofibrils from non-failing human LVs", "test": "Ex vivo treatment of human myofibrils with recombinant PKCα, with or without subsequent recombinant HDAC6, then myofibril mechanics", "description": "Myofibril mechanics were quantified using the fast solution switching technique (47). Frozen LV sections were skinned in 0.5% Triton-X in rigor solution (132 mM NaCl, 5 mM KCl, 1 mM MgCl2, 10 mM Tris, 5 mM EGTA, pH 7.1) containing protease inhibitors (10 μm leupeptin, 5 μm pepstatin, 200 μm PMSF and 10 μm E64), as well as 500 μm NaN3 and 500 μm DTT at 4° C. overnight. Skinned LVs were washed in fresh rigor solution and homogenized (Tissue-Tearor, Thomas Scientific) in relaxing solution (pCa 9.0) containing protease inhibitors. Myofibril suspensions were transferred to a temperature controlled chamber (15° C.) containing relaxing solution (pCa 9.0; 100 mM Na2EGTA; 1 M potassium propionate; 100 mM Na2SO4; 1 M MOPS; 1 M MgCl2; 6.7 mM ATP; and 1 mM creatine phosphate; pH 7.0). Myofibril bundles were mounted between two micro-tools. One tool was connected to a motor that could produce rapid length changes (Mad City Labs). The second tool was a calibrated cantilevered force probe (7-10 μm/μN; frequency response 2-5 KHz). Myofibrils were set 5-10% above slack myofibril length. Average sarcomere lengths and myofibril diameters were measured using ImageJ software. Mounted myofibrils were activated and relaxed by rapidly translating the interface between two flowing streams of solutions of different pCa. Data were collected and analyzed using customized Lab View software. Measured mechanical and kinetic parameters were defined as follows: resting tension (mN/mm^2)=myofibril basal tension in fully relaxing condition; maximal tension (mN/mm^2)=maximal tension generated at full calcium activation (pCa 4.5); the rate constant of tension development following maximal calcium activation=kACT; and relaxation parameters were defined as: duration of the linear relaxation=linear duration, and the rate constant of exponential relaxation=fast kREL. For, myofibril resting tension-to-sarcomere length curves, each myofibril was stretched incrementally to determine the resting tension at different sarcomere lengths, and a resting tension-sarcomere length relationship was measured. […]"}, "[4]": {"test_system": "myofibrils from mice lacking the PEVK region of titin", "test": "Ex vivo treatment of PEVK KO mouse LV myofibrils with recombinant HDAC6, then myofibril mechanics", "conditions": "30 minutes", "description": "as §1"}, "[5]": {"test_system": "WT mouse left ventricle myofibrils (titin)", "test": "Ex vivo treatment of WT mouse LV myofibrils with recombinant HDAC6, then myofibril mechanics", "conditions": "30 minutes, listed as rHDAC6", "description": "as §1"}, "[6]": {"test_system": "PKC-driven phosphorylation of sacromeric proteins", "test": "Immunoblot with anti-PKC substrate antibody of treated human myofibril proteins", "type": "biochemical", "conditions": "human myofibrils, PKCα followed by HDAC6", "description": "FIG. 3E is an immunoblot performed with an anti-PKC substrate antibody and solubilized proteins from myofibrils treated as indicated in the protocol illustrated in FIG. 3B.\nElevated PEVK phosphorylation is s associated with increased cardiomyocyte passive stiffness in pre-clinical models and in human heart failure (7). To begin to address the therapeutic potential of HDAC6 gain-of-function, an ex vivo experiment was performed to determine whether HDAC6 is capable of overriding the cardiac stiffening effect of PKC. Myofibrils obtained from non-failing human LVs were pretreated with recombinant PKCα, washed, and then incubated with recombinant HDAC6 (FIG. 3B)."}, "[7]": {"test_system": "human myofibrils from non-failing donor left ventricle (titin)", "test": "Ex vivo treatment of human LV myofibrils with recombinant HDAC6, then myofibril mechanics", "description": "as §1"}}, "note": "“Also recorded” adds a separate entry of the source. Read-outs that look alike come from different tables or passages of the source."}
{"molecule": "CCN(CC)Cc1ccc2cc(COC(=O)Nc3ccc(C(=O)NO)cc3)ccc2c1", "note": "[givinostat, [6-(diethylaminomethyl)naphthalen-2-yl] methyl N-[4-(hydroxycarbamoyl)phenyl] carbamate]", "values": [{"measurement": "myofibril resting tension / myofibril stiffness", "setting": "[1]", "value": "no effect"}, {"measurement": "diastolic dysfunction", "setting": "[2]", "value": "ameliorates rather than exacerbates diastolic dysfunction"}]}
{"molecule": "CN1CCc2c(c3ccccc3n2Cc2ccc(C(=O)NO)cc2)C1", "note": "[tubastatin A]", "values": [{"measurement": "tubulin acetylation as a marker of HDAC6 inhibition", "setting": "HDAC6", "value": "inhibited HDAC6 equivalently"}, {"measurement": "myofibril resting tension / myofibril stiffness", "setting": "[1]", "value": "elevated resting tension; also recorded: dramatically increased resting tension"}]}
{"molecule": "HDAC2: recombinant HDAC2 used as control in the ex vivo myofibril assay", "values": [{"measurement": "titin stiffness / myofibril compliance", "setting": "rat myofibrils (titin)", "value": "not"}]}
{"molecule": "PKCα: recombinant PKCα (0.066 U/μL, Millipore 14-484) with lipid activator", "values": [{"measurement": "myofibril resting tension at physiologic sarcomere length", "setting": "[3]; human myofibrils treated with recombinant PKCα alone", "value": "dramatically increased"}]}
{"molecule": "recombinant HDAC6: recombinant HDAC6 (1 μg/μL, BPS Bioscience) used for ex vivo treatment of myofibrils", "values": [{"measurement": "titin stiffness / myofibril compliance", "setting": "rat myofibrils (titin)", "value": "reduced titin stiffness; also recorded: increases myofibril compliance"}, {"measurement": "response of myofibril stiffness to HDAC6", "setting": "[4]", "value": "completely resistant"}, {"measurement": "myofibril compliance", "setting": "[5]", "value": "increased compliance"}, {"measurement": "PKC-driven phosphorylation of sacromeric proteins", "setting": "[6]", "value": "without affecting"}, {"measurement": "myofibril compliance / cardiomyocyte passive stiffness", "setting": "[7]", "value": "increases myofibril compliance"}, {"measurement": "myofibril compliance / cardiomyocyte passive stiffness", "setting": "[7]; listed as rHDAC6", "value": "conserved ability of this deacetylase to control cardiomyocyte passive stiffness"}, {"measurement": "PKC-induced leftward shift in the sarcomere length-to-resting tension curve", "setting": "[3]; human myofibrils pretreated with recombinant PKCα, then recombinant HDAC6", "value": "largely blocked"}, {"measurement": "PKCα-induced stiffening (resting tension at physiologic sarcomere length)", "setting": "[3]; human myofibrils pretreated with recombinant PKCα, washed, then incubated with recombinant HDAC6", "value": "completely normalized"}]}
